According to article PMC6468648, “The Flavonoid Metabolite 2,4,6-Trihydroxybenzoic Acid Is a CDK Inhibitor and an Anti-Proliferative Agent: A Potential Role in Cancer Prevention” (Cancers, 2019):

How the values were obtained:
Format in all cases: biochemical
CDK1 = target: T1, CDK1 (Homo sapiens, UniProt P06493); experiment: in vitro kinase assay, […]-ATP ([…] ATP), H1 histone substrate, SDS-PAGE autoradiography
T1 construct: recombinant CDK1/Cyclin B1 (SignalChem); with Cyclin B1

CDK2 = target: T2, CDK2 (Homo sapiens, UniProt P24941); experiment: as above
T2 construct: recombinant CDK2/Cyclin A2 (SignalChem); with Cyclin A2

CDK4 = target: T3, CDK4 (Homo sapiens, UniProt P11802); experiment: in vitro kinase assay, […]-ATP ([…] ATP), retinoblastoma (C-term) substrate, SDS-PAGE autoradiography
T3 construct: recombinant CDK4/Cyclin D1 (SignalChem); with Cyclin D1
T3 sequence (P11802 2-303): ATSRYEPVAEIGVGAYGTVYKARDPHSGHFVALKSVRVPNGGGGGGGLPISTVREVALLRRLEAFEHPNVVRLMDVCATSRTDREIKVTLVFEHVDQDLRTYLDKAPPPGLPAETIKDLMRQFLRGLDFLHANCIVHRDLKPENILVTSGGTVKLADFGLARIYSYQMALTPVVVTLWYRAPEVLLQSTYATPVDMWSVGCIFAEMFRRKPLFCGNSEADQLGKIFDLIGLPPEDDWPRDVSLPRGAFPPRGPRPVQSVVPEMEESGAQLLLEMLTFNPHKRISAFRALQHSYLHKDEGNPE
T3 sequence (P24385 whole entry partner): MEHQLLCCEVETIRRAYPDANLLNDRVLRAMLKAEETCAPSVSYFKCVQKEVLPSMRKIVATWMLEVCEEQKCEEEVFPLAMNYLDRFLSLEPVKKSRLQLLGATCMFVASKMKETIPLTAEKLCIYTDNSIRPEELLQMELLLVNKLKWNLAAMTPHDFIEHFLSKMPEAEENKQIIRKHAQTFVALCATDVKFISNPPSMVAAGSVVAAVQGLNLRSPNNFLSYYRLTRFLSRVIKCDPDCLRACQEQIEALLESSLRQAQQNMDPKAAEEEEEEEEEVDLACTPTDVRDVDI

T1 sequence (P06493 whole entry): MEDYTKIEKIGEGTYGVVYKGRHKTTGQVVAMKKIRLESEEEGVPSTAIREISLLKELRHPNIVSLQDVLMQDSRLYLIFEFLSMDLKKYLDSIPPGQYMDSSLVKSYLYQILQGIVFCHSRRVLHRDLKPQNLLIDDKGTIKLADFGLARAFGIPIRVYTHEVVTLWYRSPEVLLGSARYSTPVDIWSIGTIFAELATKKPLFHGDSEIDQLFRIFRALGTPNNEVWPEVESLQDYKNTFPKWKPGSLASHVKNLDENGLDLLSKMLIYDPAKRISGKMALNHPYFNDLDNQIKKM
T1 sequence (P14635 whole entry partner): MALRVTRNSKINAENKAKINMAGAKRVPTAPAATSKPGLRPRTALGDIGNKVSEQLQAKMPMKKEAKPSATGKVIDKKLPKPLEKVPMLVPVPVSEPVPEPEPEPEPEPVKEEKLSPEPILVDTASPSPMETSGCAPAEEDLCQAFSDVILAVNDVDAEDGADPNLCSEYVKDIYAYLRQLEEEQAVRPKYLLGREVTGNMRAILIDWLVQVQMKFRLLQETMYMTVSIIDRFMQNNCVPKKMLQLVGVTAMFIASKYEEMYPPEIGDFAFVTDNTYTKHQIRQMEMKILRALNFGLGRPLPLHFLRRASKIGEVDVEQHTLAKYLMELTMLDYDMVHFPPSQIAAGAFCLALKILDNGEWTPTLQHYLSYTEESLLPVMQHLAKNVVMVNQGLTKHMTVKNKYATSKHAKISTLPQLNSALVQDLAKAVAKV

- IC50 (CDK1): 580 ± 57 µM
- IC50 (CDK2): 262 ± 29 µM
- IC50 (CDK4): 403 ± 63 µM
Structure (SMILES): O=C(O)c1c(O)cc(O)cc1O [2,4,6-THBA, 2,4,6-trihydroxybenzoic acid]
